Reference: patent publication US9593108B2, “Compounds and methods for antiviral treatment” (PTC Therapeutics, Inc., priority 2009, dated 2017)

Tested on: HCV replicon RNA (GenBank Accession No. AJ242654)
Experiment: HCV Replicon Assay (replicon RNA reduction and/or Fluc reporter signal)
Type: cell-based, Hepatitis C virus
Details: Hepatitis C virus, 72 h, replicon-containing cells cultured with test compound for up to 3 days
Source text: The lack of reliable and readily accessible cell-culture and small animal models permissive for HCV replication has limited the development of new anti-HCV agents. Self-replicating subgenomic HCV systems, termed HCV replicons, have been described and have been widely used to assess the efficacy of anti-HCV inhibitors (see Blight K J, et al., 2000, Efficient initiation of HCV RNA replication in cell culture. Science 290:1972-1974; Blight K J, et al., 2002, Highly permissive cell lines for subgenomic and genomic hepatitis C virus RNA replication. J Virol 76:13001-13014; Ikeda M, et al., 2002. Selectable subgenomic and genome-length dicistronic RNAs derived from an infectious molecular clone of the HCV-N strain of hepatitis C virus replicate efficiently in cultured Huh7 cells. J Virol 76:2997-3006; Lohmann V, et al., 1999, Replication of subgenomic hepatitis C virus RNAs in a hepatoma cell line. Science 285:110-113; Pietschmann T, et al., 2002, Persistent and transient replication of full-length hepatitis C virus genomes in cell culture. J Virol 76:4008-4021; and, Pietschmann T, et al., 2001, Characterization of cell lines carrying self-replicating hepatitis C virus RNAs. J Virol 75:1252-1264).
As described in U.S. Pat. No. 6,630,343, HCV inhibitors are analyzed in the bicistronic replicon by quantitating replicon RNA (GenBank Accession No. AJ242654) reduction and/or the Fluc reporter signal. Replicon-containing cells may be cultured with a test compound of the present invention for up to 3 days. Interferon (IFN) is used as a positive control. In general, the replicon IC50 values shown in Table 1 represent IC50 values determined by replicon RNA reduction.

Compound	IC50 [nM]
COc1ccc2c(n1)c(C#N)c(-c1ccc(S(=O)(=O)N[C@@H](C)C(F)(F)F)cn1)n2C1CCC1 [Cpd 20, 6-(3-cyano-1-cyclobutyl-5-methoxy-1H-pyrrolo[3,2-b]pyridin-2-yl)-N-[(2S)-1,1,1-trifluoropropan-2-yl]pyridine-3-sulfonamide]	500 to 2000
COc1cnc2c(c1)c(C#N)c(-c1ccc(S(=O)(=O)N[C@@H](C)C(F)(F)F)cn1)n2C1CCC1 [Cpd 22, 6-(3-cyano-1-cyclobutyl-5-methoxy-1H-pyrrolo[2,3-b]pyridin-2-yl)-N-[(2S)-1,1,1-trifluoropropan-2-yl]pyridine-3-sulfonamide]	500 to 2000
COc1ncc2c(C#N)c(-c3ccc(S(=O)(=O)N[C@@H](C)C(F)(F)F)cn3)n(C3CCC3)c2n1 [Cpd 38, 6-(5-cyano-7-cyclobutyl-2-methoxy-7H-pyrrolo[2,3-d]pyrimidin-6-yl)-N-[(2S)-1,1,1-trifluoropropan-2-yl]pyridine-3-sulfonamide]	< 500
COc1ncc2c(C#N)c(-c3ccc(S(=O)(=O)N[C@H](C)C(F)(F)F)cn3)n(C3CCC3)c2n1 [Cpd 39, 6-(5-cyano-7-cyclobutyl-2-methoxy-7H-pyrrolo[2,3-d]pyrimidin-6-yl)-N-[(2R)-1,1,1-trifluoropropan-2-yl]pyridine-3-sulfonamide]	2000 to 5000
COc1ccc2c(C#N)c(-c3ccc(S(=O)(=O)NC(CF)CF)cc3)n(C3CCC3)c2n1 [Cpd 43, 4-(3-cyano-1-cyclobutyl-6-methoxy-1H-pyrrolo[2,3-b]pyridin-2-yl)-N-(1,3-difluoropropan-2-yl)benzenesulfonamide]	< 500
COc1cnc2c(c1)c(C#N)c(-c1ccc(S(=O)(=O)N[C@H](C)C(F)(F)F)cn1)n2C1CCC1 [Cpd 48, 6-(3-cyano-1-cyclobutyl-5-methoxy-1H-pyrrolo[2,3-b]pyridin-2-yl)-N-[(2R)-1,1,1-trifluoropropan-2-yl]pyridine-3-sulfonamide]	< 500
Cc1ccc2c(C#N)c(-c3ccc(S(=O)(=O)N[C@H](C)C(F)(F)F)cc3)n(C3CCC3)c2n1 [Cpd 91, 4-(3-cyano-1-cyclobutyl-6-methyl-1H-pyrrolo[2,3-b]pyridin-2-yl)-N-[(2R)-1,1,1-trifluoropropan-2-yl]benzenesulfonamide]	< 500
Cc1ccc2c(C#N)c(-c3ccc(S(=O)(=O)N[C@@H](C)C(F)(F)F)cn3)n(C3CCC3)c2n1 [Cpd 92, 6-(3-cyano-1-cyclobutyl-6-methyl-1H-pyrrolo[2,3-b]pyridin-2-yl)-N-[(2S)-1,1,1-trifluoropropan-2-yl]pyridine-3-sulfonamide]	< 500
Cc1ccc2c(C#N)c(-c3ccc(S(=O)(=O)N[C@H](C)C(F)(F)F)cn3)n(C3CCC3)c2n1 [Cpd 93, 6-(3-cyano-1-cyclobutyl-6-methyl-1H-pyrrolo[2,3-b]pyridin-2-yl)-N-[(2R)-1,1,1-trifluoropropan-2-yl]pyridine-3-sulfonamide]	< 500
Cc1ccc2c(C#N)c(-c3ncc(S(=O)(=O)NC(C)C)cn3)n(C3CCC3)c2n1 [Cpd 95, 2-(3-cyano-1-cyclobutyl-6-methyl-1H-pyrrolo[2,3-b]pyridin-2-yl)-N-(propan-2-yl)pyrimidine-5-sulfonamide]	500 to 2000
C[C@@H](NS(=O)(=O)c1cnc(-c2c(C#N)c3cc(C4CC4)cnc3n2C2CCC2)nc1)C(F)(F)F [Cpd 120, 2-(3-cyano-1-cyclobutyl-5-cyclopropyl-1H-pyrrolo[2,3-b]pyridin-2-yl)-N-[(2R)-1,1,1-trifluoropropan-2-yl]pyrimidine-5-sulfonamide]	< 500
N#Cc1c(-c2ccc(S(=O)(=O)NC3(C(F)(F)F)CC3)cc2)n(C2CCC2)c2ncc(C3CC3)cc12 [Cpd 123, 4-(3-cyano-1-cyclobutyl-5-cyclopropyl-1H-pyrrolo[2,3-b]pyridin-2-yl)-N-[1-(trifluoromethyl)cyclopropyl]benzenesulfonamide]	< 500
CC(C)(C)NS(=O)(=O)c1ccc(-c2c(C#N)c3cc(C4CC4)cnc3n2C2CCC2)nc1 [Cpd 126, N-tert-butyl-6-(3-cyano-1-cyclobutyl-5-cyclopropyl-1H-pyrrolo[2,3-b]pyridin-2-yl)pyridine-3-sulfonamide]	< 500
N#Cc1c(-c2ccc(S(=O)(=O)NC(CF)CF)cn2)n(C2CCC2)c2ncc(C3CC3)cc12 [Cpd 131, 6-(3-cyano-1-cyclobutyl-5-cyclopropyl-1H-pyrrolo[2,3-b]pyridin-2-yl)-N-(1,3-difluoropropan-2-yl)pyridine-3-sulfonamide]	< 500
CC(C)NS(=O)(=O)c1ccc(-c2c(C#N)c3cc(C4CC4)cnc3n2C2CCC2)cn1 [Cpd 135, 5-(3-cyano-1-cyclobutyl-5-cyclopropyl-1H-pyrrolo[2,3-b]pyridin-2-yl)-N-(propan-2-yl)pyridine-2-sulfonamide]	< 500
Cc1ccc2c(C#N)c(-c3ccc(S(=O)(=O)NC(C)(C)C(F)(F)F)cc3)n(C3CCC3)c2n1 [Cpd 139, 4-(3-cyano-1-cyclobutyl-6-methyl-1H-pyrrolo[2,3-b]pyridin-2-yl)-N-(1,1,1-trifluoro-2-methylpropan-2-yl)benzenesulfonamide]	500 to 2000
C[C@H](NS(=O)(=O)c1ccc(-c2c(C#N)c3ccc(C4CC4)nc3n2C2CCC2)cc1)C(F)(F)F [Cpd 149, 4-(3-cyano-1-cyclobutyl-6-cyclopropyl-1H-pyrrolo[2,3-b]pyridin-2-yl)-N-[(2S)-1,1,1-trifluoropropan-2-yl]benzenesulfonamide]	< 500
C[C@@H](NS(=O)(=O)c1ccc(-c2c(C#N)c3ccc(C4CC4)nc3n2C2CCC2)cc1)C(F)(F)F [Cpd 150, 4-(3-cyano-1-cyclobutyl-6-cyclopropyl-1H-pyrrolo[2,3-b]pyridin-2-yl)-N-[(2R)-1,1,1-trifluoropropan-2-yl]benzenesulfonamide]	< 500
C[C@H](NS(=O)(=O)c1cnc(-c2c(C#N)c3ccc(C4CC4)nc3n2C2CCC2)nc1)C(F)(F)F [Cpd 153, 2-(3-cyano-1-cyclobutyl-6-cyclopropyl-1H-pyrrolo[2,3-b]pyridin-2-yl)-N-[(2S)-1,1,1-trifluoropropan-2-yl]pyrimidine-5-sulfonamide]	< 500
CCc1cnc2c(c1)c(C#N)c(-c1ccc(S(=O)(=O)N[C@@H](C)C(F)(F)F)cn1)n2C1CCC1 [Cpd 157, 6-(3-cyano-1-cyclobutyl-5-ethyl-1H-pyrrolo[2,3-b]pyridin-2-yl)-N-[(2S)-1,1,1-trifluoropropan-2-yl]pyridine-3-sulfonamide]	< 500
CCc1cnc2c(c1)c(C#N)c(-c1ccc(S(=O)(=O)N[C@H](C)C(F)(F)F)cn1)n2C1CCC1 [Cpd 158, 6-(3-cyano-1-cyclobutyl-5-ethyl-1H-pyrrolo[2,3-b]pyridin-2-yl)-N-[(2R)-1,1,1-trifluoropropan-2-yl]pyridine-3-sulfonamide]	< 500
CCc1cnc2c(c1)c(C#N)c(-c1ncc(S(=O)(=O)N[C@@H](C)C(F)(F)F)cn1)n2C1CCC1 [Cpd 159, 2-(3-cyano-1-cyclobutyl-5-ethyl-1H-pyrrolo[2,3-b]pyridin-2-yl)-N-[(2S)-1,1,1-trifluoropropan-2-yl]pyrimidine-5-sulfonamide]	< 500
CCc1cnc2c(c1)c(C#N)c(-c1ncc(S(=O)(=O)N[C@H](C)C(F)(F)F)cn1)n2C1CCC1 [Cpd 160, 2-(3-cyano-1-cyclobutyl-5-ethyl-1H-pyrrolo[2,3-b]pyridin-2-yl)-N-[(2R)-1,1,1-trifluoropropan-2-yl]pyrimidine-5-sulfonamide]	< 500
CCc1cnc2c(c1)c(C#N)c(-c1ccc(S(=O)(=O)NC(C)(C)C)cn1)n2C1CCC1 [Cpd 186, N-tert-butyl-6-(3-cyano-1-cyclobutyl-5-ethyl-1H-pyrrolo[2,3-b]pyridin-2-yl)pyridine-3-sulfonamide]	< 500
CCc1cnc2c(c1)c(C#N)c(-c1ccc(S(=O)(=O)NC3(C)CC3)cn1)n2C1CCC1 [Cpd 188, 6-(3-cyano-1-cyclobutyl-5-ethyl-1H-pyrrolo[2,3-b]pyridin-2-yl)-N-(1-methylcyclopropyl)pyridine-3-sulfonamide]	< 500
CCc1cnc2c(c1)c(C#N)c(-c1ncc(S(=O)(=O)NC3(C)CC3)cn1)n2C1CCC1 [Cpd 189, 2-(3-cyano-1-cyclobutyl-5-ethyl-1H-pyrrolo[2,3-b]pyridin-2-yl)-N-(1-methylcyclopropyl)pyrimidine-5-sulfonamide]	< 500
CCc1cnc2c(c1)c(C#N)c(-c1ncc(S(=O)(=O)NC(CF)CF)cn1)n2C1CCC1 [Cpd 192, 2-(3-cyano-1-cyclobutyl-5-ethyl-1H-pyrrolo[2,3-b]pyridin-2-yl)-N-(1,3-difluoropropan-2-yl)pyrimidine-5-sulfonamide]	< 500
CCc1cnc2c(c1)c(C#N)c(-c1ccc(S(=O)(=O)NC3CC3)cn1)n2C1CCC1 [Cpd 193, 6-(3-cyano-1-cyclobutyl-5-ethyl-1H-pyrrolo[2,3-b]pyridin-2-yl)-N-cyclopropylpyridine-3-sulfonamide]	< 500

Same assay, conditions: replicon-containing cells cultured with test compound for up to 3 days

Compound	IC50 [nM]
6-(3,6-dicyano-1-cyclobutyl-1H-pyrrolo[2,3-b]pyridin-2-yl)-N-[(2S)-1,1,1-trifluoropropan-2-yl]pyridine-3-sulfonamide [Cpd 241]	< 500
